The source made the active and inactive calls.
Columns and labels:
[1] = target: Dual specificity protein kinase CLK1 (Homo sapiens, UniProt P49759); experiment: CLK1 kinase inhibitors, off-target check, dose response, selectivity assay for Dyrk1A inhibitor project, biochemical, cherry-picked samples (AID 588811)
[2] = target: Dual specificity tyrosine-phosphorylation-regulated kinase 1A (Rattus norvegicus, UniProt Q63470); type: biochemical, Homo sapiens
Troponin, cardiac muscle = Troponin, cardiac muscle (Homo sapiens, UniProt P19429+P45379+P63316); experiment: Fluorescence-based biochemical high throughput dose response assay for activators of the calcium sensitivity of cardiac Regulated Thin Filaments (RTF). [Related pubchem assays (depositor defined):AID493008, AID493018, AID504382, AID504383]; type: protein-complex assay
Mu-type opioid receptor = Mu-type opioid receptor (Homo sapiens, UniProt P35372); type: functional, cell-based;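 note: U2OS cells with beta-arrestin recruitment to OPRM1 by beta-gal complementation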
[3] = target: Peroxisome proliferator-activated receptor gamma/Nuclear receptor coactivator 1 (Homo sapiens, UniProt P37231); experiment: TR-FRET dose response biochemical High Throughput Screening assay for agonists of the steroid receptor coactivator 1 (SRC-1) recruitment by the peroxisome proliferator-activated receptor gamma (PPAR gamma): non-selective agonists. [Related pubchem assays (depositor defined):AID1300, AID1808, AID504735, AID631]; type: protein assay
Sequence of Peroxisome proliferator-activated receptor gamma/Nuclear receptor coactivator 1 (P37231 whole entry): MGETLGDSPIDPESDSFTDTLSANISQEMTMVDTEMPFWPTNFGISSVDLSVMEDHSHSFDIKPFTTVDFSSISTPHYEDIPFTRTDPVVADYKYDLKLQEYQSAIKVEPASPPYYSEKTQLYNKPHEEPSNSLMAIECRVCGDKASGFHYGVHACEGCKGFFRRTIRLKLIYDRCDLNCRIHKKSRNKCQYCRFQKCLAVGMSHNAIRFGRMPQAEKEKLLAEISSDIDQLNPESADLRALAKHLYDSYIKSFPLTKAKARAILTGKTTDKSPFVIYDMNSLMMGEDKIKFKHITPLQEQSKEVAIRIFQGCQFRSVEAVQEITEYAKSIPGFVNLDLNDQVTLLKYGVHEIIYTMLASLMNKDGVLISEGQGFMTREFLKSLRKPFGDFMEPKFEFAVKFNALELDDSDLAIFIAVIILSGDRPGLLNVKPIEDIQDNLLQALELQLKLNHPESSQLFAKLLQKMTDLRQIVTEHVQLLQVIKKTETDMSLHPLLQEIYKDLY
Sequence of Peroxisome proliferator-activated receptor gamma/Nuclear receptor coactivator 1 (Q15788 whole entry, further chain): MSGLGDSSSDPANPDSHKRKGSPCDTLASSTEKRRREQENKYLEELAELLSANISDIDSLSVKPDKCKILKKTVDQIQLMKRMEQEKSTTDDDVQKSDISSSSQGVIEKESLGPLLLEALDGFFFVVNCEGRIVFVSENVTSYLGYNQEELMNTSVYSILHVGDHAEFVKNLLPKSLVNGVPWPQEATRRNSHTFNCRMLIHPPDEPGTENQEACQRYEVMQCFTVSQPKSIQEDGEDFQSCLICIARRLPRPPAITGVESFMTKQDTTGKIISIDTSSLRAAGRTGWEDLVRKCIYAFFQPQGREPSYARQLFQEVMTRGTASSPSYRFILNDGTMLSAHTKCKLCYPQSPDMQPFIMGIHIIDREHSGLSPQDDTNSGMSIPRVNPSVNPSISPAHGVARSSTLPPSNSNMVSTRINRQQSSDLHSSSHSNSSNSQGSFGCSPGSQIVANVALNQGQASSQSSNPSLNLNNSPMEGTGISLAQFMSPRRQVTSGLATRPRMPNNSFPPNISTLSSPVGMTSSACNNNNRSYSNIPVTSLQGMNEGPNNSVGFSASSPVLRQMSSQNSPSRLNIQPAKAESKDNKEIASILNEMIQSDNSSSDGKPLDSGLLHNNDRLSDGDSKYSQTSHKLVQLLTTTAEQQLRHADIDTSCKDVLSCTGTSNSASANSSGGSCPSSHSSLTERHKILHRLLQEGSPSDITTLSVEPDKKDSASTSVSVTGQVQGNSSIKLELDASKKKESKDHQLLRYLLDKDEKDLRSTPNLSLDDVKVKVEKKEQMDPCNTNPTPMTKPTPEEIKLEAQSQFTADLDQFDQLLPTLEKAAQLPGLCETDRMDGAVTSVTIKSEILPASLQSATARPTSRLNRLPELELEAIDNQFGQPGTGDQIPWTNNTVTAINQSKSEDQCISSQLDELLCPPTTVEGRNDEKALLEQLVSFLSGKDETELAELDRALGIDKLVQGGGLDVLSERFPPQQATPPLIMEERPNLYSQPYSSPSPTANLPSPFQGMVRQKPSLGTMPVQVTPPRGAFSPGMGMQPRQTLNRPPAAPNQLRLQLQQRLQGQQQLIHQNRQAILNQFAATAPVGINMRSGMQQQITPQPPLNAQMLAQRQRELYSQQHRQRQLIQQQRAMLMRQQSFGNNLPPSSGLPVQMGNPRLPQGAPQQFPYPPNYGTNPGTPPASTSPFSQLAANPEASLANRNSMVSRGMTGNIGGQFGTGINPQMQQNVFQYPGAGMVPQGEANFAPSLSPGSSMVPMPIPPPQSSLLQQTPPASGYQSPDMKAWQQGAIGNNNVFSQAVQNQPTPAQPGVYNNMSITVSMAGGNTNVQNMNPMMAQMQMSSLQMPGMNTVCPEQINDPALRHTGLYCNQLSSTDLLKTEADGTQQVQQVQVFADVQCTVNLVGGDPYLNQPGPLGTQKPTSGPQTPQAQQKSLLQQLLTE

[4] = target: Peroxisome proliferator-activated receptor gamma/Nuclear receptor coactivator 2 (Homo sapiens, UniProt P37231); experiment: TR-FRET dose response biochemical High Throughput Screening assay for agonists of the steroid receptor coactivator 2 (SRC-2) recruitment by the peroxisome proliferator-activated receptor gamma (PPAR gamma): non-selective agonists. [Related pubchem assays: 1297, 1032 ]; type: functional
[5] = target: Peroxisome proliferator-activated receptor gamma/Nuclear receptor coactivator 3 (Homo sapiens, UniProt P37231); experiment: TR-FRET dose response biochemical High Throughput Screening assay for agonists of the steroid receptor coactivator 3 (SRC-3) recruitment by the peroxisome proliferator-activated receptor gamma (PPAR gamma): non-selective agonists. [Related pubchem assays: 1301 (Confirmation screen.), 1048 (Primary screen.)]; type: functional
Sequence of Peroxisome proliferator-activated receptor gamma/Nuclear receptor coactivator 3 (P37231 whole entry): as the sequence (P37231 whole entry) above
Sequence of Peroxisome proliferator-activated receptor gamma/Nuclear receptor coactivator 3 (Q9Y6Q9 whole entry, further chain): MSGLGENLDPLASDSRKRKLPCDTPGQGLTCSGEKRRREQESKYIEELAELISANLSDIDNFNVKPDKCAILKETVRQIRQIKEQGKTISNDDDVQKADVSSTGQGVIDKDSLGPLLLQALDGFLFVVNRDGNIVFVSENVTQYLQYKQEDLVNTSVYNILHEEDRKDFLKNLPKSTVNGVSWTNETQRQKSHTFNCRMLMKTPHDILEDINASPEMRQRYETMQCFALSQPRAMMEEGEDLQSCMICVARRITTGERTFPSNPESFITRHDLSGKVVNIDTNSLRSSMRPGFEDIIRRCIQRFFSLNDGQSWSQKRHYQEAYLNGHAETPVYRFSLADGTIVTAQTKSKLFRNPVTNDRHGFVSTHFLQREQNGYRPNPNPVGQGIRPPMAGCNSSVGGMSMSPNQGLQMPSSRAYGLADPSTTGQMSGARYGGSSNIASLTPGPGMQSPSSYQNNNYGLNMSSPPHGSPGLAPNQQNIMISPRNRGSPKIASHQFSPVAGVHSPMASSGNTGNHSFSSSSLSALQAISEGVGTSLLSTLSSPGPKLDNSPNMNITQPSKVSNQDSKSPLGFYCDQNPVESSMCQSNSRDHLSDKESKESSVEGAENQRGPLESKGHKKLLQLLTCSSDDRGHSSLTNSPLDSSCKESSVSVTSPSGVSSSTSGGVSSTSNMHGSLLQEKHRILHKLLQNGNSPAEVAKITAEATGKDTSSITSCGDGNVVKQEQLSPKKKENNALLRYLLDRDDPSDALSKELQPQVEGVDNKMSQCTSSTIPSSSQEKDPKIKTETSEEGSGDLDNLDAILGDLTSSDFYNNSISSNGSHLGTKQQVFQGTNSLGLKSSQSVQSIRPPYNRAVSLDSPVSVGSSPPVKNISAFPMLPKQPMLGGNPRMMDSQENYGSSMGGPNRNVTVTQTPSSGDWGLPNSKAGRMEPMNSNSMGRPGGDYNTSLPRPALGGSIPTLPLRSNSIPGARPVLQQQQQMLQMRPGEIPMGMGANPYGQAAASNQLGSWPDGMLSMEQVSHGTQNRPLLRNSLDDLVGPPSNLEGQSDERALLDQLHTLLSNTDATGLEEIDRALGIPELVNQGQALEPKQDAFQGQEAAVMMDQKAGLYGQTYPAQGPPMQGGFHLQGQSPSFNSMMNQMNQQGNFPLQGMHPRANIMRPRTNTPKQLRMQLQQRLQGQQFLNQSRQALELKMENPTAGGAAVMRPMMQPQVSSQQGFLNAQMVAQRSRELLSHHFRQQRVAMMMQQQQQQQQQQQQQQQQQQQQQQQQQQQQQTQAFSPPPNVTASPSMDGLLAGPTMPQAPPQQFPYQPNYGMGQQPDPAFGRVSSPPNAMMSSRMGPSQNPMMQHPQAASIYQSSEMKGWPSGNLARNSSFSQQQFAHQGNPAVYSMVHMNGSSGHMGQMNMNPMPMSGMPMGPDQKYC

[6] = target: T1, Ubiquitin-conjugating enzyme E2 N (Homo sapiens, UniProt P61088); type: functional;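 note: Dose-response confirmation in a TR-FRET assay detecting UBC13-driven polyubiquitin chain formation, inhibition measured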
T1 sequence (P61088 whole entry): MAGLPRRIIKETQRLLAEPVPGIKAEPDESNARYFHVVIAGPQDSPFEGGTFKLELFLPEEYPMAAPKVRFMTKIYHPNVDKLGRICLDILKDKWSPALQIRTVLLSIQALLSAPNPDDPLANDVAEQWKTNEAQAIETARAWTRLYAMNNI

[7] = target: 5-hydroxytryptamine receptor 2A (Mus musculus, UniProt P35363); type: functional, cell-based;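 note: CHO-K1 cells with tagged receptor and beta-arrestin; agonist potency measured as compound-induced activation of the receptor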
[8] = cytotoxicity toward DRD oncogenic fibroblasts, dose response, cell-based, non-viral oncogenic, luminescence (AID 1934); type: functional; conditions: Homo sapiens
BJ [9] = experiment: cytotoxicity toward Ras-transformed BJeLR fibroblasts, dose response, cell-based, alamar blue fluorescence, cherrypicked samples (AID 2631); type: functional; conditions: Homo sapiens;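 note: confirmatory dose-response assay in RAS-dependent BJ fibroblasts engineered with TERT, LT and ST, with cytotoxicity read by fluorescence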
BJ [10] = experiment: cells; type: functional, cell-based; conditions: Homo sapiens
Jurkat = experiment: antigen receptor-induced NF-kB inhibitors, dose response, Jurkat, luciferase reporter, luminescence, B- and T-cell (AID 489004); type: functional, cell-based; conditions: Homo sapiens;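 note: NF-kB luciferase reporter Jurkat cells stimulated with PMA plus ionomycin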
[11] = cytotoxicity in HEK-293T NF-kB-Luc cells, dose response, cytotoxicity control for B/T-cell NF-kB inhibitor project, cell-based, uHTS hits (AID 489019); type: functional;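 note: IC50 reflects cytotoxicity as loss of cell viability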
BJ [12] = experiment: cytotoxicity toward BJ-TERT-LT-ST fibroblasts, dose response, cell-based, RAS-independent, luminescence (AID 1935); type: functional; conditions: Homo sapiens;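 note: BJ fibroblasts immortalized with TERT plus LT and ST oncogenes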
BJ [13] = experiment: cytotoxicity toward BJ-TERT fibroblasts, dose response, cell-based, RAS-independent, luminescence (AID 1933); type: functional; conditions: Homo sapiens
[14] = target: Beta-2 adrenergic receptor (Homo sapiens, UniProt P07550); experiment: beta2AR agonists driving receptor internalization, dose response, cell-based, FAP fluorogen, flow cytometry, cherry pick 1 (AID 588763); type: functional
Sequence of Beta-2 adrenergic receptor (P07550 whole entry): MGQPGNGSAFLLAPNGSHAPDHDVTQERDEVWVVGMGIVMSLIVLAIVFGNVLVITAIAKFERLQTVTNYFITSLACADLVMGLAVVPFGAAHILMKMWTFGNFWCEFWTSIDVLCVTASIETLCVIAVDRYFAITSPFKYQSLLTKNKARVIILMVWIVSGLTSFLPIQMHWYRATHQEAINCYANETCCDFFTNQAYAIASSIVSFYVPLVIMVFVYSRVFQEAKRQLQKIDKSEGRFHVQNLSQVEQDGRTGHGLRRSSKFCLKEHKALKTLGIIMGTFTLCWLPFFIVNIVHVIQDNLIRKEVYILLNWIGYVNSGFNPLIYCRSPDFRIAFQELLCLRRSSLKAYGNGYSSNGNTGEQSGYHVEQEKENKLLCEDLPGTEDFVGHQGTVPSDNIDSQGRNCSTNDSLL

cells = type: functional, cell-based; conditions: HEK-CNG
[15] = Shn3 3'UTR reporter inhibitors, dose response, cell-based, Clone20 osteoblasts, firefly luciferase, cherry-picked (AID 624132); type: functional;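 note: firefly luciferase luminescence from reporter carrying the Shn3 3'UTR in osteoblasts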
INS1 = experiment: beta cell apoptosis inhibitors, cytokine rescue, dose response, luminescence, retest (AID 449756); type: functional, cell-based; conditions: Rattus norvegicus;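 note: cell death triggered by IL-1 beta plus TNF-alpha plus IFN-gamma mixture; protective hits raise ATP signal compared with cytokine alone wells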
[16] = target: T2, COUP transcription factor 2 (Homo sapiens, UniProt P24468); experiment: Luminescence-based cell-based high throughput dose response assay to identify inhibitors of COUP-TFII (NR2F2).; type: functional;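 note: HEK293 cells transiently cotransfected with COUP-TFII expression vector and reporter; luciferase reporter luminescence driven by COUP-TFII from the pX2-168 reporter plasmid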
T2 sequence (P24468 whole entry): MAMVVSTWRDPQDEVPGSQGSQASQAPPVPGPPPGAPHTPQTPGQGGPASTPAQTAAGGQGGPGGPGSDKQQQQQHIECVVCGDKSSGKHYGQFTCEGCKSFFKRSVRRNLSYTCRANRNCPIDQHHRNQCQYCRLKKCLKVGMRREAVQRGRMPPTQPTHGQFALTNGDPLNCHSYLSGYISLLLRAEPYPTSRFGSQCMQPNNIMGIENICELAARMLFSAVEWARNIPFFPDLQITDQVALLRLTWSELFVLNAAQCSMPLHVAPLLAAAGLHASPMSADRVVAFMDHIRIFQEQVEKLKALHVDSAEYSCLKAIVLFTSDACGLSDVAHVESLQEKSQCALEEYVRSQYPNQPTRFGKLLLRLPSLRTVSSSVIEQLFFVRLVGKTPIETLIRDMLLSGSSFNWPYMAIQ

Galanin receptor type 3 = target: T3, Galanin receptor type 3 (Homo sapiens, UniProt O60755); experiment: Fluorescence-based cell-based primary high throughput dose response assay to identify antagonists of the Galanin Receptor 3 (GalR3).; type: functional
T3 sequence (O60755 whole entry): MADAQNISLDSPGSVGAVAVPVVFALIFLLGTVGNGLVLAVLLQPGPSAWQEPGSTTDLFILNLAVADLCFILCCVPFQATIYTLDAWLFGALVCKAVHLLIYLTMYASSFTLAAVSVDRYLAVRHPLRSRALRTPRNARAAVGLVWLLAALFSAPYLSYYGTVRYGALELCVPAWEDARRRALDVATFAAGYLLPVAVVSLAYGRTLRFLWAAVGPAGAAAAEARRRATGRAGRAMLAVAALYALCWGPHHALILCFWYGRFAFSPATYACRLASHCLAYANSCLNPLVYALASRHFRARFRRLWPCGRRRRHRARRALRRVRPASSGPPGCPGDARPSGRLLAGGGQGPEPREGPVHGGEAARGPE

[17] = control 3'UTR Renilla luciferase suppression, dose response, counter-screen for Shn3 inhibitor project, cell-based, Clone20-Shn3RL, cherry-picked (AID 624133); type: functional
[18] = HepG2 cell cytotoxicity, dose response, cytotoxicity control for Shn3 inhibitor project, CellTiter-Glo, cherry-picked (AID 624134); type: functional, cell-based
Cytochrome P450 2D6 = Cytochrome P450 2D6 (Homo sapiens, UniProt P10635);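 note: CYP2D6 member of a cytochrome P450 panel assay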
Sequence of Cytochrome P450 2D6 (P10635 whole entry): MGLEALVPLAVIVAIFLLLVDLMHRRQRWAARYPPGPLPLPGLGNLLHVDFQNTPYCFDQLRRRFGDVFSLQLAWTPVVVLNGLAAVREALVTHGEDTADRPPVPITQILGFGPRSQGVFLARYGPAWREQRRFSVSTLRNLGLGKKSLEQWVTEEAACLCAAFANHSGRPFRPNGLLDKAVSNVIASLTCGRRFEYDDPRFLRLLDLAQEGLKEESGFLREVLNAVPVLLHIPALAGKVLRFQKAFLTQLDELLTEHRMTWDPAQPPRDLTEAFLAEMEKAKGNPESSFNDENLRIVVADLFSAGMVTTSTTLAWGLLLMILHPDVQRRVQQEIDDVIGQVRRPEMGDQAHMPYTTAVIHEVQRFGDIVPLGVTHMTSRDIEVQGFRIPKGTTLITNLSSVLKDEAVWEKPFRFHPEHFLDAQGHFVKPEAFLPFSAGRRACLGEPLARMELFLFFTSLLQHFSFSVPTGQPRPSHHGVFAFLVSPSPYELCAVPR

Cytochrome P450 2C19 = Cytochrome P450 2C19 (Homo sapiens, UniProt P33261); experiment: Cytochrome panel assay with activity outcomes. Panel member name: p450-cyp2c19 Compounds with AC50 equal or less than 10 uM are considered active; type: functional
Cytochrome P450 3A4 = Cytochrome P450 3A4 (Homo sapiens, UniProt P08684);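 note: CYP3A4 tested as one member of a cytochrome P450 panel screen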
Cytochrome P450 1A2 = target: T4, Cytochrome P450 1A2 (Homo sapiens, UniProt P05177);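 note: PubChem cytochrome P450 panel assay, CYP1A2 panel member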
T4 sequence (P05177 whole entry): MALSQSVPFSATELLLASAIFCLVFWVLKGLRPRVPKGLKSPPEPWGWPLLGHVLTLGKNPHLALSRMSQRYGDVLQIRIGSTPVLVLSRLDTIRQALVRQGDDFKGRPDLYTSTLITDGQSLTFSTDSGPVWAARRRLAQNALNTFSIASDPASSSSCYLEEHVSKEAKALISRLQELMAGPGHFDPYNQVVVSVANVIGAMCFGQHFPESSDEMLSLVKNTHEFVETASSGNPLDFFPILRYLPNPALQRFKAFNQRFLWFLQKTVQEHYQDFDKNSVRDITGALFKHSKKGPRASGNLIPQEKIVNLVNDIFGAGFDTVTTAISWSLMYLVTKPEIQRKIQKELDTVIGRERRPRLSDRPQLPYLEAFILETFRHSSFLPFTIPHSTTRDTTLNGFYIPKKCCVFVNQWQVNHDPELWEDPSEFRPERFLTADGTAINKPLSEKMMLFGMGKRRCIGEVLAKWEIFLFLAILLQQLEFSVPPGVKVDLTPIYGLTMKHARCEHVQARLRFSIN

[19] = target: T5, Mannose-6-phosphate isomerase (Homo sapiens, UniProt P34949); experiment: PMI enzyme inhibitors, confirmation, biochemical, fluorescence intensity (AID 1535)
T5 sequence (P34949 whole entry): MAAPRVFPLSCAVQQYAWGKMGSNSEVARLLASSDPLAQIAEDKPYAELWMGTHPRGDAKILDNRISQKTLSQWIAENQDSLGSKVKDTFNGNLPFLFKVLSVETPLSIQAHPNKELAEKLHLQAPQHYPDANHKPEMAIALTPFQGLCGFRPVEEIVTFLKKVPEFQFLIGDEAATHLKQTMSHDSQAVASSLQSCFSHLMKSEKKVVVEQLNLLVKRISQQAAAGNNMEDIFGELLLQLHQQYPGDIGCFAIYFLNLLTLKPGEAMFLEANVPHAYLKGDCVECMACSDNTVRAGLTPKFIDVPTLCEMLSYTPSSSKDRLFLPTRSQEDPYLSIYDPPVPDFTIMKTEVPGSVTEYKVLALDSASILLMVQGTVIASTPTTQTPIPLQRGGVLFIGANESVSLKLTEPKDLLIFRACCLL

Phosphomannomutase 2 = Phosphomannomutase 2 (Homo sapiens, UniProt O15305); experiment: Counter screen SAR assay for PMM2 inhibitors via a fluorescence intensity assay. [Related pubchem assays (depositor defined):AID1545, AID1574]
Sequence of Phosphomannomutase 2 (O15305 whole entry): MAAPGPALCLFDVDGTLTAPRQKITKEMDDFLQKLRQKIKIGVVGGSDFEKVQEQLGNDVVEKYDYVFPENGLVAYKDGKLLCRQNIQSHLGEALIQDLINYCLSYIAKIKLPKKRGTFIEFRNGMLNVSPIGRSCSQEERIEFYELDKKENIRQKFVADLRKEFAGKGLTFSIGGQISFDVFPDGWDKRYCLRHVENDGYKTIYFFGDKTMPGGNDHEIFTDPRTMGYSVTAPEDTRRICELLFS

Coagulation factor XII = target: T6, Coagulation factor XII (Homo sapiens, UniProt P00748); type: functional;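 note: activated factor XIIa alpha cleaving a fluorogenic AMC peptide substrate; inhibitor potency from loss of enzyme activity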
T6 sequence (P00748 whole entry): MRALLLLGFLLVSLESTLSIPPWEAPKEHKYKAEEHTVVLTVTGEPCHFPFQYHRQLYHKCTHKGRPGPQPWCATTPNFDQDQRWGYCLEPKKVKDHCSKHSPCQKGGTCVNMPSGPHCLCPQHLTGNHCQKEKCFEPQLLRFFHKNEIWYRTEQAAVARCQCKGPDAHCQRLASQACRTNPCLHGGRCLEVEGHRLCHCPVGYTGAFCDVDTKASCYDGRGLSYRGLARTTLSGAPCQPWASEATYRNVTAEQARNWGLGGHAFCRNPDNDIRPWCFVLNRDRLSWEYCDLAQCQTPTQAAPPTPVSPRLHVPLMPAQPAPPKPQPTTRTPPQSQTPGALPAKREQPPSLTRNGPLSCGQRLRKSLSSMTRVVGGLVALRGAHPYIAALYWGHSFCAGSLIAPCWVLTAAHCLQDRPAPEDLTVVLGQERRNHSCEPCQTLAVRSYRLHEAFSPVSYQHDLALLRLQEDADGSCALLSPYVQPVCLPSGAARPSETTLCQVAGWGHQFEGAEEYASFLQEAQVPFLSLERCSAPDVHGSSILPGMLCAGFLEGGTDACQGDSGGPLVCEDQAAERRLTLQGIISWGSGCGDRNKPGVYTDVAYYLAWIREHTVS

SMILES: O=C(COc1ccccc1)Nc1cccc(-c2cn3cccnc3n2)c1
- AC50 [1]: 10.4 µM (active)
- AC50 [2]: 3.85 µM (active)

SMILES: CCOC(=O)c1sc(N)c(C#N)c1COC(=O)CNC(=O)c1cc(OC)c(OC)c(OC)c1
- EC50 (Troponin, cardiac muscle): 11.1 µM (inactive)

SMILES: CCn1c(=O)cc(SCC(=O)NCCCN2CCN(c3ccccc3F)CC2)c2ccccc21
- EC50 (Mu-type opioid receptor): 92.6 µM (inactive)
- EC50 [3]: > 79.4 µM (inactive)
- EC50 [4]: > 79.4 µM (not active)
- EC50 [5]: > 79.4 µM (not active)
- IC50 [6]: > 20 µM (inactive)
- EC50 [7]: 0.0169 µM (active)

SMILES: CC1CCCN(c2ccc([N+](=O)[O-])cc2C(=O)c2ccccc2)C1 (stereo not given)
- EC50 [8]: 1.29 µM (active)
- EC50 (BJ [9]): 0.314 µM (active)
- EC50 (BJ [10]): 1.32 µM (active)
- IC50 (Jurkat): 40.6 µM (inactive)
- IC50 [11]: > 80 µM (inactive)
- EC50 (BJ [12]): 0.657 µM (inconclusive)
- EC50 (BJ [13]): 1.27 µM (active)
- EC50 [14]: 12.2 µM (inactive)

SMILES: CCOc1cc(S(=O)(=O)NCc2ccncc2)ccc1Cl
- EC50 (cells): > 29.9 µM (inactive)
- AC50 [15]: < 0.26 µM (active)
- IC50 (Jurkat): > 80 µM (inactive)
- IC50 [11]: > 80 µM (inactive)
- AC50 (INS1): 0.848 µM (active)
- IC50 [16]: 2.29 µM (active)
- IC50 (Galanin receptor type 3): 0.581 µM (active)
- AC50 [17]: < 0.26 µM (active)
- AC50 [18]: 0.45 µM (active)

SMILES: O=C([O-])Cc1ccccc1Nc1c(Cl)cccc1Cl.[Na+] [DICLOFENAC SODIUM]
- AC50 (Cytochrome P450 2D6): inactive
- AC50 (Cytochrome P450 2C19): inactive
- AC50 (Cytochrome P450 3A4): inconclusive
- AC50 (Cytochrome P450 1A2): inactive

SMILES: COc1ccc(C(=O)N2CCC3(CCCN(C(=O)NC(C)C)C3)CC2)cc1
- AC50 (Cytochrome P450 1A2): inactive

SMILES: Cc1ccc(/N=c2\ssnc2Cl)nc1
- IC50 [19]: > 100 µM (inactive)
- IC50 (Phosphomannomutase 2): > 100 µM (inactive)

SMILES: CCOc1cc(/C=N/n2cnnc2)cc(Br)c1O
- IC50 (Coagulation factor XII): > 50 µM (inactive)

SMILES: CC(=O)Nc1nonc1NC(=O)CSc1ccccn1
- IC50 (Coagulation factor XII): > 50 µM (inactive)

From ChEMBL document CHEMBL1201862, “PubChem BioAssay data set” (2004)
